Source: US10071973B2, “Crystalline isoxazole hydroxamic acid compounds” (priority 2016, dated 2018)
“Also recorded” adds a separate entry of the source. Like-named read-outs stand apart in the source and are kept apart here.

Tests used:
[1] = system: E. coli ATCC 25922; assay: MIC by broth microdilution (CLSI), E. coli, alone and with rifampicin; assay type: cell-based; conditions: Escherichia coli
Protocol: (§1) Bacterial isolates were cultivated from −70° C. frozen stocks by two consecutive overnight passages at 35° C. in ambient air on 5% blood agar (Remel, Lenexa, Kans.). Quality control strain, P. aeruginosa ATCC 27853, A. baumannii ATCC19606 and E. coli ATCC 25922 are from the American Type Culture Collection (ATCC; Rockville, Md.) and PAO1 was received from Dr. K. Poole.
(§2) Minimal Inhibitory Concentrations (MICs) were determined by the broth microdilution method in accordance with Clinical and Laboratories Institute (CLSI) guidelines (CLSI M100-S25, Performance Standards for Antimicrobial Susceptibility Testing; Twenty-fifth Informational Supplement). In brief, fresh bacterial overnight cultures were resuspended in sterile saline, adjusted to a 0.5 McFarland turbidity standard and then diluted 2000-fold in cation adjusted Mueller-Hinton Broth II (MHB; Remel BBL) to yield a final inoculum of approximately 5×10^5 colony-forming units (CFU)/mL. […] Following incubation, assay plates were read in a microtiter plate reader at 600 nm and visually inspected to confirm the MIC endpoint well with the OD value. The lowest concentration of the compound that prevented visible growth was recorded as the MIC. Performance of the assay was monitored by testing ciprofloxacin against the laboratory quality control strain in accordance with guidelines of the CLSI.

[2] = system: A. baumannii ATCC19606; assay: MIC by broth microdilution (CLSI), A. baumannii, alone and with rifampicin; assay type: cell-based; conditions: Acinetobacter baumannii
Protocol: as §1, §2

[3] = system: P.A. PAO1 NB52019; assay: MIC by broth microdilution (CLSI), P. aeruginosa; assay type: cell-based; conditions: Pseudomonas aeruginosa, 35° C., 20 hours
Protocol: as §1, §2

[4] = Hygroscopicity: mass change with relative humidity / deliquescence; assay type: physicochemical; conditions: for hygroscopicity / deliquescence (in words): exposed to air or humidity, amorphous: humidity of about 80% or higher
Protocol: FIG. 4. Isotherm Plots showing reversible mass changes of Crystalline Compound A over a Relative Humidity range of 0-90%.
Primary soller slit 2.5°; secondary soller slit 2.5°; divergent slit 0.6 mm; antiscatter slit 5.0 mm.

[5] = Stability (colour) of the solid on standing at ambient temperature; assay type: physicochemical; conditions: ambient / room temperature, over time
Text: This material required special handling and was not considered suitable for development as a pharmaceutical.

MIC ([1]; ATCC 25922 / ATCC 29522, in presence of 2 μg/ml rifampicin, read-out: E.C. ATCC 29522 (+2 μg/ml RIF) MIC) [µg/mL] | MIC ([1]; ATCC25922, broth microdilution, 35° C., 20 hours, read-out: E.C. ATCC 25922 MIC) [µg/mL] | MIC ([2]; broth microdilution, 35° C., 20 hours, read-out: A.B. ATCC 19606 MIC) [µg/mL] | MIC ([2]; in presence of 2 μg/ml rifampicin, read-out: A.B. ATCC 19606 (+2 μg/ml RIF) MIC) [µg/mL] | MIC [3] [µg/mL] | mass increase (hygroscopicity) ([4]; RH=90%) [%] | hygroscopicity / deliquescence (in words) [4] | mass increase (hygroscopicity) ([4]; relative humidity (RH) of 80%) [%] | Compound | colour stability on standing [5]
≤ 0.06 | 2 | > 64 | 0.125 | 0.25 | – | – | – | C[C@@](CCc1cc(C#CC2CC2)on1)(C(=O)NO)S(C)(=O)=O [A, (R)-4-(5-(cyclopropylethynyl)isoxazol-3-yl)-N-hydroxy-2-methyl-2-(methylsulfonyl)butanamide] | –
– | – | – | – | – | 3.2 | low hygroscopicity | 1.3 | C[C@@](CCc1cc(C#CC2CC2)on1)(C(=O)NO)S(C)(=O)=O [crystalline Compound (A), (R)-4-(5-(cyclopropylethynyl)isoxazol-3-yl)-N-hydroxy-2-methyl-2-(methylsulfonyl)butanamide] | –
– | – | – | – | – | – | significantly deliquescent | – | C[C@@](CCc1cc(C#CC2CC2)on1)(C(=O)NO)S(C)(=O)=O [amorphous Compound (A), (R)-4-(5-(cyclopropylethynyl)isoxazol-3-yl)-N-hydroxy-2-methyl-2-(methylsulfonyl)butanamide] | developed a brownish color over time; also recorded: tended to darken on standing at ambient temperature
